Reference: patent US20230192717A1, “COMPOSITIONS AND METHODS OF MODULATING SHORT-CHAIN DEHYDROGENASE ACTIVITY” (RODEO THERAPEUTICS CORPORATION, priority 2020, published 2023)
In brackets after ≈: the same amount, converted by molar mass.

Target: T1, recombinant 15-PGDH (Homo sapiens, UniProt P15428)
T1 sequence (P15428 1-266): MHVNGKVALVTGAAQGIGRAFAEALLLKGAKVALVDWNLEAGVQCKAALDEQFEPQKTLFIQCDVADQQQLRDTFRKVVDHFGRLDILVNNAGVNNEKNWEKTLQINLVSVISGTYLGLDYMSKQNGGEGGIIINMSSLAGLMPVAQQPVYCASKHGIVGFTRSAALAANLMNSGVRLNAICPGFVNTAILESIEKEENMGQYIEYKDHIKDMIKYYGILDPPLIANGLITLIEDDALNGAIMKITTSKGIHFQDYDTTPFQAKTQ
Test: inhibition of enzymatic activity of recombinant 15-PGDH in vitro
Type: biochemical
Conditions: recombinant human 15-PGDH
Text: The Recombinant 15-PGDH is human unless otherwise specified.

**Q.** With `COCC[S+]([O-])c1sc2nc(-c3ccc4nccnc4c3)cc(C(C)C)c2c1N` (single isomer, unassigned) [Compound 25, 2-[2-methoxyethanesulfinyl]-4-(propan-2-yl)-6-(quinoxalin-6-yl)thieno[2,3-b]pyridin-3-amine] as the compound, how does the IC50 read?
**A.** > 10 nM

**Q.** With `COCC[S@@+]([O-])c1sc2nc(-c3cnc(N)nc3)cc(C(C)C)c2c1N` (stereo in doubt) [Compound 18, 5-{3-amino-2-[2-methoxyethanesulfinyl]-4-(propan-2-yl)thieno[2,3-b]pyridin-6-yl}pyrimidin-2-amine] as the compound, how does the IC50 read?
**A.** < 2.5 nM

**Q.** Which IC50 does the source give for `COCC[S@+]([O-])c1sc2nc(-c3cnc(N)nc3)cc(C(C)C)c2c1N` (stereo in doubt) [Compound 19, 5-{3-amino-2-[2-methoxyethanesulfinyl]-4-(propan-2-yl)thieno[2,3-b]pyridin-6-yl}pyrimidin-2-amine] here?
**A.** > 10 nM

**Q.** With `CNc1ncc(-c2cc(C(C)C)c3c(N)c([S+]([O-])CCOC)sc3n2)cn1` (stereo in doubt) [Compound 23, 5-{3-amino-2-[(R)-2-methoxyethanesulfinyl]-4-(propan-2-yl)thieno[2,3-b]pyridin-6-yl}-N-methylpyrimidin-2-amine] as the compound, how does the IC50 read?
**A.** > 10 nM

**Q.** For `COCC[S@@+]([O-])c1sc2nc(-c3ccc4nccnc4c3)cc(C(C)C)c2c1N` (stereo in doubt) [Compound 24, 2-[2-methoxyethanesulfinyl]-4-(propan-2-yl)-6-(quinoxalin-6-yl)thieno[2,3-b]pyridin-3-amine], which IC50 is on record?
**A.** < 2.5 nM

**Q.** Which IC50 does the source give for `Cn1nccc1-c1cc(-c2cnc3ncccc3c2)nc2sc([S@+]([O-])C3CCC3)c(N)c12` (stereo in doubt) [Compound 26, 2-(cyclobutanesulfinyl)-4-(1-methyl-1H-pyrazol-5-yl)-6-(1,8-naphthyridin-3-yl)thieno[2,3-b]pyridin-3-amine] here?
**A.** < 2.5 nM

**Q.** Which IC50 does the source give for `Cn1nccc1-c1cc(-c2cnc3ncccc3c2)nc2sc([S@@+]([O-])C3CCC3)c(N)c12` (stereo in doubt) [Compound 27, 2-(cyclobutanesulfinyl)-4-(1-methyl-1H-pyrazol-5-yl)-6-(1,8-naphthyridin-3-yl)thieno[2,3-b]pyridin-3-amine] here?
**A.** > 10 nM

**Q.** For `Cn1nccc1-c1cc(-c2ccc3nccnc3c2)nc2sc([S@+]([O-])C3CCC3)c(N)c12` [Compound 1, (R)-2-(cyclobutylsulfinyl)-4-(1-methyl-1H-pyrazol-5-yl)-6-(quinoxalin-6-yl)thieno[2,3-b]pyridin-3-amine], which IC50 is on record?
**A.** < 2.5 nM

**Q.** For `Cn1nccc1-c1cc(-c2ccc3cncnc3c2)nc2sc([S@+]([O-])C3CCC3)c(N)c12` [Compound 2, 2-[(R)-cyclobutanesulfinyl]-4-(1-methyl-1H-pyrazol-5-yl)-6-(quinazolin-7-yl)thieno[2,3-b]pyridin-3-amine], which IC50 is on record?
**A.** < 2.5 nM

**Q.** Which IC50 does the source give for `COCC[S+]([O-])c1sc2nc(-c3cnc4cccnc4c3)cc(-c3ccnn3C)c2c1N` (centres unmarked) [Compound 3, 2-(2-methoxyethanesulfinyl)-4-(1-methyl-1H-pyrazol-5-yl)-6-(1,5-naphthyridin-3-yl)thieno[2,3-b]pyridin-3-amine] here?
**A.** < 2.5 nM

**Q.** With `COCC[S@@+]([O-])c1sc2nc(-c3ccc4nccnc4c3)cc(-c3ccnn3C)c2c1N` [Compound 4, 2-[(R)-2-methoxyethanesulfinyl]-4-(1-methyl-1H-pyrazol-5-yl)-6-(quinoxalin-6-yl)thieno[2,3-b]pyridin-3-amine] as the compound, how does the IC50 read?
**A.** < 2.5 nM

**Q.** For `Cn1nccc1-c1cc(-c2cnc3ncccn23)nc2sc([S@+]([O-])C3CCC3)c(N)c12` [Compound 5, 2-[(R)-cyclobutanesulfinyl]-6-{imidazo[1,2-a]pyrimidin-3-yl}-4-(1-methyl-1H-pyrazol-5-yl)thieno[2,3-b]pyridin-3-amine], which IC50 is on record?
**A.** 2.5 to 10 nM

**Q.** For `COCC[S+]([O-])c1sc2nc(-c3cnc4ncccc4c3)cc(C3CCC3)c2c1N` (centres unmarked) [Compound 6, 4-cyclobutyl-2-(2-methoxyethanesulfinyl)-6-(1,8-naphthyridin-3-yl)thieno[2,3-b]pyridin-3-amine], which IC50 is on record?
**A.** < 2.5 nM

**Q.** For `COCC[S+]([O-])c1sc2nc(-c3cnc4nccnc4c3)cc(C3CCC3)c2c1N` (centres unmarked) [Compound 7, 4-cyclobutyl-2-(2-methoxyethanesulfinyl)-6-{pyrido[2,3-b]pyrazin-7-yl}thieno[2,3-b]pyridin-3-amine], which IC50 is on record?
**A.** < 2.5 nM

**Q.** Which IC50 does the source give for `CC(C)c1cc(-c2cnc(NCCO)nc2)nc2sc([S@@+]([O-])C3CCC3)c(N)c12` [Compound 8] here?
**A.** > 10 nM

**Q.** With `Cn1nccc1-c1cc(-c2ccc3ncncc3c2)nc2sc([S@+]([O-])C3CCC3)c(N)c12` [Compound 10, 2-[(R)-cyclobutanesulfinyl]-4-(1-methyl-1H-pyrazol-5-yl)-6-(quinazolin-6-yl)thieno[2,3-b]pyridin-3-amine] as the compound, how does the IC50 read?
**A.** < 2.5 nM

**Q.** With `COCC[S@@+]([O-])c1sc2nc(-c3cnc4cnccn34)cc(C3CCC3)c2c1N` [Compound 11, (R)-4-cyclobutyl-6-(imidazo[1,2-a]pyrazin-3-yl)-2-((2-methoxyethyl)sulfinyl)thieno[2,3-b]pyridin-3-amine] as the compound, how does the IC50 read?
**A.** < 2.5 nM

**Q.** With `Cn1nccc1-c1cc(-c2cnc3ncccc3c2)nc2sc([S+]([O-])C3CCC3)c(N)c12` (centres unmarked) [Compound 12, 2-(cyclobutanesulfinyl)-4-(1-methyl-1H-pyrazol-5-yl)-6-(1,8-naphthyridin-3-yl)thieno[2,3-b]pyridin-3-amine] as the compound, how does the IC50 read?
**A.** < 2.5 nM

**Q.** Which IC50 does the source give for `COCC[S@@+]([O-])c1sc2nc(-c3cnc4cnccn34)cc(-c3ccnn3C)c2c1N` [Compound 13, (R)-6-(imidazo[1,2-a]pyrazin-3-yl)-2-((2-methoxyethyl)sulfinyl)-4-(1-methyl-1H-pyrazol-5-yl)thieno[2,3-b]pyridin-3-amine] here?
**A.** < 2.5 nM

**Q.** Which IC50 does the source give for `Cn1cc2cc(-c3cc(C4CC5(COC5)C4)c4c(N)c([S@+]([O-])C5CCC5)sc4n3)cnc2n1` [Compound 14, (R)-2-(cyclobutylsulfinyl)-6-(2-methyl-2H-pyrazolo[3,4-b]pyridin-5-yl)-4-(2-oxaspiro[3.3]heptan-6-yl)thieno[2,3-b]pyridin-3-amine] here?
**A.** < 2.5 nM

**Q.** For `COCC[S@@+]([O-])c1sc2nc(-c3ccc4ncncc4c3)cc(-c3ccnn3C)c2c1N` [Compound 15, 2-[(R)-2-methoxyethanesulfinyl]-4-(1-methyl-1H-pyrazol-5-yl)-6-(quinazolin-6-yl)thieno[2,3-b]pyridin-3-amine], which IC50 is on record?
**A.** < 2.5 nM

**Q.** Which IC50 does the source give for `COCC[S@@+]([O-])c1sc2nc(-c3ccc4cncnc4c3)cc(-c3ccnn3C)c2c1N` [Compound 16, 2-[(R)-2-methoxyethanesulfinyl]-4-(1-methyl-1H-pyrazol-5-yl)-6-(quinazolin-7-yl)thieno[2,3-b]pyridin-3-amine] here?
**A.** < 2.5 nM

**Q.** Which IC50 does the source give for `COCC[S+]([O-])c1sc2nc(-c3cnc4nn(C)cc4c3)nc(C(C)C)c2c1N` (centres unmarked) [Compound 17, 4-isopropyl-6-((2-methoxyethyl)sulfinyl)-2-(2-methyl-2H-pyrazolo[3,4-b]pyridin-5-yl)thieno[2,3-d]pyrimidin-5-amine] here?
**A.** < 2.5 nM

**Q.** With `CC(C)c1cc(-c2cnc(N)nc2)nc2sc([S@+]([O-])C3CCC3)c(N)c12` [Compound 20] as the compound, how does the IC50 read?
**A.** < 2.5 nM

**Q.** Which IC50 does the source give for `CC(C)c1cc(-c2cnc(N)nc2)nc2sc([S@@+]([O-])C3CCC3)c(N)c12` [Compound 21] here?
**A.** > 10 nM

**Q.** For `CNc1ncc(-c2cc(C(C)C)c3c(N)c([S@+]([O-])CCOC)sc3n2)cn1` [Compound 22, 5-{3-amino-2-[(R)-2-methoxyethanesulfinyl]-4-(propan-2-yl)thieno[2,3-b]pyridin-6-yl}-N-methylpyrimidin-2-amine], which IC50 is on record?
**A.** < 2.5 nM

**Q.** Which IC50 does the source give for `COCC[S@@+]([O-])c1sc2nc(-c3cnc4nn(C)cc4c3)cc(C(C)(C)C)c2c1N` [Compound 28, 4-tert-butyl-2-[(R)-2-methoxyethanesulfinyl]-6-{2-methyl-2H-pyrazolo[3,4-b]pyridin-5-yl}thieno[2,3-b]pyridin-3-amine] here?
**A.** < 2.5 nM

**Q.** For `Cn1nccc1-c1cc(-c2cnc3c(c2)CNCC3)nc2sc([S+]([O-])C3CCC3)c(N)c12` (centres unmarked) [Compound 31, 2-(cyclobutanesulfinyl)-4-(1-methyl-1H-pyrazol-5-yl)-6-(5,6,7,8-tetrahydro-1,6-naphthyridin-3-yl)thieno[2,3-b]pyridin-3-amine], which IC50 is on record?
**A.** 2.5 to 10 nM

**Q.** For `COCC[S+]([O-])c1sc2nc(-c3cnc4c(c3)OCCN4)cc(-c3ccnn3C)c2c1N` (centres unmarked) [Compound 32, 2-(2-methoxyethanesulfinyl)-4-(1-methyl-1H-pyrazol-5-yl)-6-{2H,3H,4H-pyrido[3,2-b][1,4]oxazin-7-yl}thieno[2,3-b]pyridin-3-amine], which IC50 is on record?
**A.** < 2.5 nM

**Q.** With `CC(C)c1cc(-c2cc(=O)n(C)cn2)nc2sc([S@+]([O-])C3CCC3)c(N)c12` [Compound 33, 6-{3-amino-2-[(R)-cyclobutanesulfinyl]-4-(propan-2-yl)thieno[2,3-b]pyridin-6-yl}-3-methyl-3,4-dihydropyrimidin-4-one] as the compound, how does the IC50 read?
**A.** < 2.5 nM

**Q.** Which IC50 does the source give for `COCC[S@@+]([O-])c1sc2nc(-c3cc(=O)n(C)cn3)cc(C(C)C)c2c1N` [Compound 34, 6-{3-amino-2-[(R)-2-methoxyethanesulfinyl]-4-(propan-2-yl)thieno[2,3-b]pyridin-6-yl}-3-methyl-3,4-dihydropyrimidin-4-one] here?
**A.** < 2.5 nM

**Q.** For `CC(C)(C)c1cc(-c2cnc(N)nc2)nc2sc([S@+]([O-])C3CCC3)c(N)c12` [Compound 35, 5-{3-amino-4-tert-butyl-2-[(R)-cyclobutanesulfinyl]thieno[2,3-b]pyridin-6-yl}pyrimidin-2-amine], which IC50 is on record?
**A.** < 2.5 nM

**Q.** Which IC50 does the source give for `COCC[S@@+]([O-])c1sc2nc(-c3cc(=O)n(C)cn3)cc(-c3ccccc3)c2c1N` [Compound A, reference compound] here?
**A.** < 2.5 nM

System: not listed separately
Test: kinetic aqueous solubility in pH 7 citrate buffer
Type: physicochemical
Conditions: kinetic from dmso stock, pH 7 citrate buffer solution, read-out: Kinetic Aq solubility (μM pH 7)

**Q.** With `COCC[S+]([O-])c1sc2nc(-c3cnc4nn(C)cc4c3)nc(C(C)C)c2c1N` (centres unmarked) [Compound 17, 4-isopropyl-6-((2-methoxyethyl)sulfinyl)-2-(2-methyl-2H-pyrazolo[3,4-b]pyridin-5-yl)thieno[2,3-d]pyrimidin-5-amine] as the compound, how does the solubility kinetic read?
**A.** 187 µM (≈ 80.5 µg/mL)

**Q.** Which solubility kinetic does the source give for `COCC[S@@+]([O-])c1sc2nc(-c3cc(=O)n(C)cn3)cc(-c3ccccc3)c2c1N` [Compound A, reference compound] here?
**A.** 64 µM (≈ 28.2 µg/mL)
